Reference: patent US7094602B2, “Method for cell culture” (Fuji Photo Film Co, Ltd., priority 2002, dated 2006)

Experiments:
CHL cells = assay: Influence of chelating agent on cultured cells (Example 5); format: cell-based, Chinese Hamster; details: cultured two days at 37° C. in the medium, 1.5 mM EDTA, GEDTA, DTPA, EDTPO, 3 g/l HMPA, 3 mM HEDP
Procedure: CHL cells cultured beforehand were collected by trypsinization, and the cell density was adjusted to 50000 cells/ml. This cell suspension was inoculated on a polystyrene cell culture dish at a cell number of 10000 cells/cm^2, and each of the following media was added. Then, the cells were cultured at 37° C. for two days by using a CO2 incubator. The results of evaluation of stimulative property on the cells based on morphology and proliferation property of the cultured cells are shown in Table 3. The results are represented by using the result obtained for the cells cultured with the medium a mention d in the table as a standard. […] Eagle's minimum medium (MEM) • Medium b: […] MEM added with 1.5 mM diethylenetriamine-N,N,N′,N,N-pentaacetic acid (DTPA) • Medium e: MEM added with 3 g/l of sodium hexametaphosphate (HMPA) • Medium f: […] MEM added with 1.5 mM ethylenediamine-N,N,N′,N′-tetrakis(methylenephosphoric acid) (EDTPO) As for the media b to f, pH was adjusted to that of the medium a with NaOH or HCl after the chemicals were added.

[1] = system: CHL (Chinese Hamster Lung Cell); assay: Detachment of cultured cell layer from carrier for cell culture (Example 2); format: cell-based; details: time required to detach CHL cell layer from calcium alginate/collagen carrier on immersion; MEM with EDTA, 3 g/l HMPA or 3 mM HEDP
Procedure: • Used cell: CHL (Chinese Hamster Lung Cell) • Used medium: Eagle's minimum medium containing 10% bovine fetal serum Carrier for Cell Culture: The carrier for cell culture prepared in Example 1, adhered to bottom surfaces of polystyrene cell culture dishes with double-sided tapes, and a polystyrene cell culture dishes alone as a comparative example were subjected to UV sterilization or electron beam sterilization. The operation, wherein the medium was added to the dishes to immerse the carrier for cell cultures for 5 minutes and then the medium was exchanged, was repeated three times, and then the dishes were left overnight to allow the medium to infiltrate into the carriers for cell culture. The calls cultured beforehand were collected by trypsin treatment, and the cell density was adjusted to 50,000 cells/ml. After the medium in the cells and dishes was discarded, the cell suspension was inoculated into the dishes at a cell number of 10,000 cells/cm^2, and then the medium was added. Thereafter, the cells were cultured at 37° C. for two days by using a CO2 incubator. The samples obtained by the culture were immersed in each of the following seven kinds of detachment solutions and non-detachment solutions, and then the cell layers were pulled with a pair of tweezers to examine state of detachment of the cell layers from the carriers for cell culture. A period of time required for the detachment of each cell layer was measured. Then, the cell sheets detached with an immersion time in a detachment solution of 30 minutes was placed on a polystyrene cell culture dish, added with the medium and cultured at 37° C. for one day by using a CO2 incubator. The cells were stained with trypan blue and observed under an optical microscope. The use of detachment agents of the present invention provided favorable detachment characteristics, that is, high survival rate of the cells and non-stimulative property (i.e., no cell deformation due to stimulation) was successfully confirmed. […]

[2] = system: CHL (Chinese Hamster Lung Cell); format: cell-based; details: cell layer transfer with weighting 0.8 g/cm^2, immersion 10 minutes, culture one day, immersion 20 minutes; for State of cells after detachment: Morphology of survived cells: optical microscope; for State of cells after detachment: Survival rate: trypan blue
From the text: The samples obtained by the culture on the carriers for cell culture in Example 2 were taken out together with the carriers for cell culture, and placed on polystyrene cell culture dishes in such a manner that the cell layer surfaces contacted with the dishes, and foamed urethane filters having a thickness of 3 mm and stainless steel plates were placed thereon in this order. The weight of each stainless steel plate was adjusted so that the total weight including the weight of the urethane filter became 0.8 g/cm^2. Then, the samples were immersed in the detachment solution (iii), (iv) or (v) mentioned in Example 2 for 10 minutes, and after the solution was replaced with the medium, culture was performed at 37° C. for one day by using a CO2 incubator. The cultures were immersed in the same detachment solutions for 20 minutes, and then the carriers for cell culture were detached by pulling with a pair of tweezers. Then, the solutions were replaced with the medium, and culture was continued at 37° C. for one day by using a CO2 incubator. The cells were stained with trypan blue and then observed under an optical microscope. Favorable results were obtained with the detachment solutions of the present invention. In the sample where the weight was applied only by using the stainless steel plates without using the […] and the sample where the detachment solution (i) was used, the cells died during the transfer operation. Further, in the sample where the detachment solution (ii) was used, transfer was not successful.

[3] = system: HepG2 (human liver cancer derived cells) laminated on BRL (Buffalo Rat Liver 3A); assay: Lamination of cell layers, cytochrome P-450 3A metabolism of BFC to HFC (Example 4); format: cell-based; details: HepG2 layer transferred on BRL with the detachment solution; cultured 90 hours, BFC added, cultured two days
Procedure: In the same manner as that of Example 2, HepG2 (human liver cancer derived cells) was cultured on the carrier for cell culture of Example 1, and BRL (Buffalo Rat Liver 3A, ATCC No. CRL 1442) was cultured on a polystyrene cell culture dish. Cell layers were transferred on the cells cultured on the dishes by using the detachment solution (v) mentioned in Example 2 in the same manner as that of Example 3 to obtain laminated cells.

SMILES | State of cells: Morphology (CHL cells) | State of cells: Proliferation rate (CHL cells; relative to medium a (MEM)) | Detachment time [1] [min] | State of cells after detachment: Morphology of survived cells [2] | State of cells after detachment: Survival rate [2] | HFC produced through metabolism by cytochrome P-450 3A in laminated cells (fluorescence microscope) [3]
O=C(O)CN(CCN(CC(=O)O)CC(=O)O)CC(=O)O [(iii) MEM + EDTA, EDTA] | X (30% or less of not rounded cells are indicated with X) | X (degradation to 70% or less is indicated with X) | 15 | – | – | –
O=P1([O-])OP(=O)([O-])OP(=O)([O-])OP(=O)([O-])OP(=O)([O-])OP(=O)([O-])O1.[Na+].[Na+].[Na+].[Na+].[Na+].[Na+] [(iv) MEM + HMPA, sodium hexametaphosphate] | – | – | 10 | Not deformed | 90% or more | –
CC(O)(P(=O)(O)O)P(=O)(O)O [(v) MEM + HEDP, 1-hydroxyethane-1,1-diphosphoric acid] | – | – | 20 | Not deformed | 90% or more | Fluorescence derived from HFC was observed in the portions of HepG2
